The values below come from patent US7166622B2, “Substituted phenylsulfonamide inhibitors of beta amyloid production” (Wyeth, priority 2002, dated 2007).

Where two headings read alike, the source gives them in different places.

For one series, the system named is beta amyloid production. The series can be described thus: Repressor Release Assay (RRA). The class given is cell-based. The note with it: for APPI % of Example #98: relative to Example 98. On the procedure:
CHO-K1 cells were cultured in whole DMEM media (DMEM—High Glucose with 10% fetal bovine serum, 1% Non-essential Amino Acids, and 1% Penicillin-Streptomycin) at 37° C. with 5% CO2. Two million cells were plated into 10-cm dishes 24 hrs prior to transfection.
Transient transfections were completed as recommended by Gibco BRL using their Lipofectamine Plus system. First, 6 μg of pRSVO-luc and 6 μg of APP-lacI construct DNA were added to 460 μL Opti-Mem transfection media and incubated with 30 μL Plus reagent for 15 minutes. Then, a lipid mixture of 40 μL Lipofectamine reagent and 460 μL Opti-Mem transfection media was incubated with the DNA-Plus reagent mixture for 15 minutes. During the DNA-lipid incubation, the CHO-K1 cells were washed once and covered in 5.0 mL DMEM media without Penicillin-Streptomycin. The DNA-lipid preparation was then layered onto these cells and incubated at 37° C. overnight.
[…] transfected cells per well (100 μL total volume) were plated into sterile, opaque Packard 96-well Culture-Plates in clear DMEM whole media (DMEM—without phenol red) and incubated at 37° C. with 5% CO2 for 3-5 hours.
Compounds were diluted using two different protocols; one protocol was used for compounds supplied neat (weighed powder in vial) and the other protocol was used for compounds supplied in solution (20 mM in DMSO in 96-well plates). For both protocols, 25 mM Hepes and 25 mM Hepes/1% DMSO were prepared fresh to be used as diluent. The Hepes/DMSO was used as the diluent control on all experimental plates.
The following table depicts the steps for compound dilution (please note that the last step was the addition of compound to cells/media in tissue culture plate).
Because some compounds were present in 96-well format at 20 mM, the following represents the protocol for their dilution (note that an average molecular weight of these compounds was used to calculate these dilutions and as above, the last step was the addition of compound to cells/media in tissue culture plate).
Once the compounds were diluted, they were applied in duplicate on cells in tissue culture plates (prepared above). Cells were incubated with compound at 37° C. with 5% CO2 for an additional 36-48 hours.
Luciferase assays (LucLite reagent, Packard) were performed and were read on a Packard TopCount instrument. Media was removed from each 96-well plate and replaced with 100 μL PBS per well (with Mg^2+ and Ca^2+). An equal volume (100 μL) of the LucLite lysis/substrate buffer was added to each well and the plates were sealed and mixed in the dark on a rotary shaker for 15-30 minutes at room temperature. Luciferase readings were then taken on the TopCount instrument. Measurements were expressed as relative light units (RLU) and are calculated and analyzed in MS Excel as follows: […]

A further series relates to CHO-K1 cells. Kind of series: Toxicity in RRA (loss of luciferase signal). As to conditions: toxicity = loss of signal (<0.75 fold increase).
[1] abbreviates: Conc 20 μg/ml, luciferase activity (RLU) over diluent control, read-out: APPI Fold Increase.
[2] abbreviates: Conc 20 μg/ml, 1=non-toxic, 0=toxic.
Setting [3] is: Conc 20 μg/ml, luciferase activity over diluent control, read-out: APPI Fold Increase.
Setting [4] is: Conc 10 μg/ml, luciferase activity over diluent control, read-out: APPI Fold Increase.
[5] abbreviates: Conc 10 μg/ml, luciferase activity over diluent control.

Method for CHO-K1 cells: The beta amyloid inhibitory activity of the compounds of the present invention was determined using the Repressor Release Assay (RRA).
“Fold Increase” refers to the amount of luciferase activity (measured in relative light units) over diluent control. “SEM” refers to the standard error of the mean for fold increase.

In the case of `CCC[C@H](CC)[C@@H](CO)NS(=O)(=O)c1ccc(Br)cc1` [Example 77, 4-bromo-N-[(1S,2S)-2-ethyl-1-(hydroxymethyl)pentyl]benzenesulfonamide], the fold induction at 20 µg/mL in the series with beta amyloid production (setting [1]) is 5.9. In addition, in the series with CHO-K1 cells (setting [2]), the “(%)APPI Toxicity” value is 1 (1=non-toxic).

For the compound `C=CCN([C@H](CO)[C@@H](C)CC)S(=O)(=O)c1ccc(Cl)cc1` [Example 40, N-Allyl-4-chloro-N-[(1S,2 S)-1-(hydroxymethyl)-2-methylbutyl]benzenesulfonamide], the fold induction at 20 µg/mL in the series with beta amyloid production (setting [3]) turned out to be 3.4. Moreover, in the series with CHO-K1 cells (Conc 20 μg/ml), the “(%)APPI Toxicity” value is 1 (1=non-toxic).

For the compound `CCCCCC[C@@H](CC)[C@@H](CO)NS(=O)(=O)c1ccc(Cl)cc1` [Example 89, 4-chloro-N-[(1S,2R)-2-ethyl-1-(hydroxymethyl)octyl] benzenesulfonamide], the “APPI Fold Increase” value in the series with beta amyloid production (Conc 20 μg/ml, luciferase activity (RLU) over diluent control) came out at 22.4. The “APPI % of Example #98” value in the series on beta amyloid production (Conc 20 μg/ml) came to 97.9%. In addition, the “(%)APPI Toxicity” value with CHO-K1 cells (setting [2]) is given as 1 (1=non-toxic).

In the case of `CC[C@H](C)[C@H](NS(=O)(=O)c1ccc(Cl)cc1)C(O)c1cccc2ccccc12` (stereo partly drawn) [Example 184, 4-chloro-N-{(1S,2S)-1-[hydroxy(1-naphthyl)methyl]-2-methylbutyl}benzenesulfonamide], the fold induction at 10 µg/mL in the series with beta amyloid production (setting [4]) stood at 1.7. Besides, the “(%)APPI Toxicity” value in the series on CHO-K1 cells (Conc 10 μg/ml) is given as 1 (1=non-toxic).

As to `CC(C)[C@H](C)[C@@H](CO)NS(=O)(=O)c1ccc(Cl)cc1` [Example 69, 4-chloro-N-[(1S,2S)-1-(hydroxymethyl)-2,3-dimethylbutyl]benzenesulfonamide], the fold induction at 20 µg/mL with beta amyloid production (setting [1]) worked out at 3.1. Further, the “(%)APPI Toxicity” value with CHO-K1 cells (setting [2]) is 1 (1=non-toxic).

Regarding `CC[C@H](C)[C@H](NS(=O)(=O)c1ccccc1F)C(O)(c1ccc(F)cc1)c1ccc(F)cc1` [Example 266, N-{(1S,2S)-1-[bis(4-fluorophenyl)(hydroxy)methyl]-2-methylbutyl}-2-fluorobenzenesulfonamide], in the series with beta amyloid production (setting [4]), the fold induction at 10 µg/mL came out at 1.57. The “(%)APPI Toxicity” value with CHO-K1 cells (Conc 10 μg/ml) is reported as 1 (1=non-toxic).

Regarding `C=CC(O)[C@@H](NS(=O)(=O)c1ccc(F)cc1)[C@@H](C)CC` (stereo partly drawn) [Example 133, 4-fluoro-N-{(1S)-2-hydroxy-1-[(1S)-1-methylpropyl]-3-butenyl}benzenesulfonamide], the fold induction at 10 µg/mL with beta amyloid production (setting [4]) amounted to 1.79. Further, the “(%)APPI Toxicity” value in the series on CHO-K1 cells (Conc 10 μg/ml) is reported as 1 (1=non-toxic).

For `CCCCCCC(O)(CCCCCC)[C@@H](NS(=O)(=O)c1ccccc1F)[C@@H](C)CC` [Example 261, 2-fluoro-N-{(1S)-2-hexyl-2-hydroxy-1-[(18)-1-methylpropyl]octyl}benzenesulfonamide], in the series with beta amyloid production (setting [5]), the “APPI Fold Increase” value was 3.5 fold. Also, in the series on beta amyloid production (Conc 10 μg/ml), the “APPI % of Example #98” value was 104.4%. In addition, the “(%)APPI Toxicity” value with CHO-K1 cells (Conc 10 μg/ml) was 1 (1=non-toxic).

With `C/C=C(\C)C(O)(/C(C)=C/C)[C@@H](NS(=O)(=O)c1ccc(Br)cc1)[C@@H](C)CC` (stereo partly drawn) [Example 220, 4-bromo-N-{(1S,3E)-2-hydroxy-3-methyl-2-[(1E)-1-methyl-1-propenyl]-1-[(1S)-1-methylpropyl]-3-pentenyl}benzenesulfonamide], the fold induction at 10 µg/mL with beta amyloid production (setting [4]) was determined as 3.29. Besides, in the series with CHO-K1 cells (Conc 10 μg/ml), the “(%)APPI Toxicity” value is reported as 1 (1=non-toxic).

Turning to `CC[C@H](C)[C@@H](CO)NS(=O)(=O)c1cc(Cl)c(Cl)cc1Cl` [Example 25, 2,4,5-trichloro-N-[(1S,2S)-1-(hydroxymethyl)-2-methylbutyl]benzenesulfonamide], the fold induction at 20 µg/mL in the series on beta amyloid production (setting [3]) worked out at 1.8. For the same compound, the “(%)APPI Toxicity” value in the series on CHO-K1 cells (Conc 20 μg/ml) is recorded as 1 (1=non-toxic).

For `CC(C)[C@@H](CO)NS(=O)(=O)c1ccc(Cl)c(Cl)c1` [Example 27, 3,4-dichloro-N-[(1S)-1-(hydroxymethyl)-2-methylpropyl]benzenesulfonamide], the fold induction at 20 µg/mL in the series on beta amyloid production (setting [3]) stood at 2.2. Moreover, the “(%)APPI Toxicity” value in the series with CHO-K1 cells (Conc 20 μg/ml) is listed as 1 (1=non-toxic).

As for `CCCCCC[C@@H](CCCCC)[C@@H](CO)NS(=O)(=O)c1ccc(Cl)cc1` [Example 62, 4-chloro-N-[(1S,2R)-1-(hydroxymethyl)-2-pentyloctyl]benzenesulfonamide], the fold induction at 20 µg/mL with beta amyloid production (setting [1]) was determined as 1.8. Further, in the series with CHO-K1 cells (setting [2]), the “(%)APPI Toxicity” value is 1 (1=non-toxic).

As for `CC[C@H](C)[C@H](NS(=O)(=O)c1ccc(Cl)cc1)C(O)(CC(C)C)CC(C)C` [Example 226, 4-chloro-N-{(1S)-2-hydroxy-2-isobutyl-4-methyl-1-[(1S)-1-methylpropyl]pentyl}benzenesulfonamide], in the series on beta amyloid production (setting [4]), the fold induction at 10 µg/mL is 4.6. For the same compound, the “(%)APPI Toxicity” value in the series on CHO-K1 cells (Conc 10 μg/ml) was 1 (1=non-toxic).

For the compound `CCC[C@H](c1ccc(OC)cc1)[C@@H](CO)NS(=O)(=O)c1ccc(Cl)cc1` [Example 57, 4-chloro-N-[(1S,2R)-1-(hydroxymethyl)-2-(4-methoxyphenyl)pentyl]benzenesulfonamide], in the series with beta amyloid production (setting [1]), the fold induction at 20 µg/mL came to 1.7. For the same compound, in the series with CHO-K1 cells (setting [2]), the “(%)APPI Toxicity” value is 1 (1=non-toxic).

As to `CC[C@H](CC(C)C)[C@@H](CO)NS(=O)(=O)c1ccc(Cl)cc1` [Example 53, 4-chloro-N-[(1S,2R)-2-ethyl-1-(hydroxymethyl)-4-methylpentyl]benzenesulfonamide], the fold induction at 20 µg/mL with beta amyloid production (setting [1]) was 5.2. In addition, in the series with CHO-K1 cells (setting [2]), the “(%)APPI Toxicity” value was 1 (1=non-toxic).

As for `CC[C@H](C)[C@H](NS(=O)(=O)c1ccc(Cl)cc1)C(O)C(C)C` (stereo partly drawn) [Example 170, 4-chloro-N-{(1S)-2-hydroxy-3-methyl-1-[(1S)-1-methylpropyl]butyl}benzenesulfonamide], in the series with beta amyloid production (setting [4]), the fold induction at 10 µg/mL was 1.92. For the same compound, the “(%)APPI Toxicity” value in the series with CHO-K1 cells (Conc 10 μg/ml) is 1 (1=non-toxic).

`CCCCCC(O)(CCCCC)[C@@H](NS(=O)(=O)c1cccc(Cl)c1)[C@@H](C)CC` [Example 250, 3-chloro-N-{(1S)-2-hydroxy-1-[(1S)-1-methylpropyl]-2-pentylheptyl}benzenesulfonamide]: in the series with beta amyloid production (setting [4]), the fold induction at 10 µg/mL came to 2.4. Further, the “(%)APPI Toxicity” value in the series on CHO-K1 cells (Conc 10 μg/ml) was 1 (1=non-toxic).

`CC(C)(C)[C@@H](CO)NS(=O)(=O)c1ccc(Cl)c(Cl)c1` [Example 30, 3,4-dichloro-N-[(1S)-1-(hydroxymethyl)-2,2-dimethylpropyl]benzenesulfonamide]: the fold induction at 20 µg/mL in the series on beta amyloid production (setting [3]) came out at 2.1. Moreover, in the series on CHO-K1 cells (Conc 20 μg/ml), the “(%)APPI Toxicity” value is reported as 1 (1=non-toxic).

For the compound `CC[C@H](C)[C@@H](CO)NS(=O)(=O)c1cc(Cl)cc(Cl)c1` [Example 8, 3,5-dichloro-N-[(1S,2S)-1-(hydroxymethyl)-2-methylbutyl]benzenesulfonamide], the fold induction at 20 µg/mL with beta amyloid production (setting [3]) is 2. Moreover, the “(%)APPI Toxicity” value in the series with CHO-K1 cells (Conc 20 μg/ml) is 1 (1=non-toxic).

Turning to `CC#CC(O)[C@@H](NS(=O)(=O)c1ccc(Br)cc1)[C@@H](C)CC` (stereo partly drawn) [Example 162, 4-bromo-N-{(1S)-2-hydroxy-1-[(1S)-1-methylpropyl]-3-pentynyl}benzenesulfonamide], in the series with beta amyloid production (setting [4]), the fold induction at 10 µg/mL was determined as 1.63. In addition, the “(%)APPI Toxicity” value in the series with CHO-K1 cells (Conc 10 μg/ml) is given as 1 (1=non-toxic).

On to `C=CCCC(O)(CCC=C)[C@@H](NS(=O)(=O)c1cccc(Cl)c1)[C@@H](C)CC` [Example 260, N-{(1S)-2-(3-butenyl)-2-hydroxy-1-[(1S)-1-methylpropyl]-5-hexenyl}-3-chlorobenzenesulfonamide], for which the fold induction at 3 µg/mL in the series on beta amyloid production (Conc 3 μg/ml, luciferase activity over diluent control, read-out: APPI Fold Increase) turned out to be 1.5. The fold induction at 10 µg/mL in the series with beta amyloid production (setting [4]) is 6.23. Moreover, the “(%)APPI Toxicity” value with CHO-K1 cells (Conc 3 μg/ml) and in the series with CHO-K1 cells (Conc 10 μg/ml) was 1 (1=non-toxic) throughout.

In the case of “3-chloro-N-{(1S)-2-hydroxy-2-isopropenyl-3-methyl-1-[(18)-1-methylpropyl]-3-butenyl}benzenesulfonamide [Example 257]”, the “APPI Fold Increase” value in the series with beta amyloid production (setting [5]) is recorded as 2.54 fold; with beta amyloid production (Conc 20 μg/ml, luciferase activity over diluent control), 2.5 fold. For the same compound, the results for the “APPI % of Example #98” value in the series on beta amyloid production (Conc 10 μg/ml) and with beta amyloid production (Conc 20 μg/ml) were 94.5% and 68.8%, respectively. Besides, the “(%)APPI Toxicity” value in the series on CHO-K1 cells (Conc 10 μg/ml) and in the series on CHO-K1 cells (Conc 20 μg/ml) was 1 (1=non-toxic) each time.

As to `CC[C@H](C)[C@@H](CO)NS(=O)(=O)c1cccc2ccccc12` [Example 12, N-[(1S,2S)-1-(hydroxymethyl)-2-methylbutyl]naphthalene-1-sulfonamide], the fold induction at 20 µg/mL in the series with beta amyloid production (setting [3]) was 2.9. Moreover, the “(%)APPI Toxicity” value in the series on CHO-K1 cells (Conc 20 μg/ml) was 1 (1=non-toxic).
